Here are results for 37 compounds from US20240132450A1, “MODULATORS OF G PROTEIN-COUPLED RECEPTOR 88” (ACADIA Pharmaceuticals Inc., priority 2020, published 2024).

A word on the EC50: it is the concentration at which the effect is half-maximal.

A value given as a limit tells only on which side of the number the result lay.

Chain of hGPR88 receptor (Q9GZN0 whole entry): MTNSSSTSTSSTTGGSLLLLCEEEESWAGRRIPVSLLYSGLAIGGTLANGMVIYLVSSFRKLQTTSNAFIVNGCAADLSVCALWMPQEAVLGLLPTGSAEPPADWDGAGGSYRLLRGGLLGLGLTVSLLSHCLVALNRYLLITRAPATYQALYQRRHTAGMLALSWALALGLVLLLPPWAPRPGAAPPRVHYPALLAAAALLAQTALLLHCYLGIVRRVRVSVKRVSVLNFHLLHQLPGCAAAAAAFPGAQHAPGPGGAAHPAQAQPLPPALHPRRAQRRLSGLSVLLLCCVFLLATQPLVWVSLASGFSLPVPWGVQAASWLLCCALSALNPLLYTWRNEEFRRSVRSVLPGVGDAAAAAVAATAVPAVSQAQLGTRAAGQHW

The test addresses hGPR88 receptor (Homo sapiens, UniProt Q9GZN0). The test can be described thus: hGPR88-HEK cAMP accumulation assay. As to conditions: GRP88 agonist activity (EC50), HEK-293 cells expressing human recombinant GPR88, forskolin 200 nM, High/Medium/Low bands. In general terms: Changes in cAMP serve as a functional read-out for many G protein-coupled receptors.
Take `CC(C)(Oc1ccc(F)cc1)C(=O)Nc1ccc(-c2ccc3c(c2)OCO3)cc1` [Example 88, N-(4-(benzo[d][1,3]dioxol-5-yl)phenyl)-2-(4-fluorophenoxy)-2-methylpropanamide]: the EC50 lay in the range of 1000 to 5000 nM. Turning to `COCc1ccc(-c2ccc(NC(=O)C(C)(C)Oc3cccc(Cl)c3)cc2)cc1` [Example 65, 2-(3-chlorophenoxy)-N-(4′-(methoxymethyl)-[1,1′-biphenyl]-4-yl)-2-methylpropanamide], the EC50 was less than 1000 nM. With `COCc1ccc(-c2ccc(NC(=O)C(C)(C)Cc3ccc(F)cc3)cc2)cc1` [Example 55, 3-(4-fluorophenyl)-N-(4′-(methoxymethyl)-[1,1′-biphenyl]-4-yl)-2,2-dimethylpropanamide], the EC50 is less than 1000 nM.

On to `CN(C)Cc1ccc(-c2ccc(NC(=O)C3CC3c3ccccn3)nc2)cc1` (racemic) [Example 82, (rac-trans)-N-(5-(4-((dimethylamino)methyl)phenyl)pyridin-2-yl)-2-(pyridin-2-yl)cyclopropane-1-carboxamide], for which the EC50 was more than 5000 nM. With `CN(C)Cc1ccc(-c2ccc(NC(=O)C(C)(C)Oc3ccc(F)cc3)nc2)cc1` [Example 80, N-(5-(4-((dimethylamino)methyl)phenyl)pyridin-2-yl)-2-(4-fluorophenoxy)-2-methylpropanamide], the EC50 fell in the range of 1000 to 5000 nM. In the case of `CN(C)c1ccc(-c2ccc(NC(=O)C3CC3c3ccccn3)cc2)cn1` (stereo not shown) [Example 125, N-(4-(6-(dimethylamino)pyridin-3-yl)phenyl)-2-(pyridin-2-yl)cyclopropane-1-carboxamide], the EC50 was more than 5000 nM. As for `O=C(c1ccc(-c2ccc(NC(=O)C3(Oc4ccc(F)cc4)CC3)cc2)cc1)N1CCOCC1` [Example 105, 1-(4-fluorophenoxy)-N-(4′-(morpholine-4-carbonyl)-[1,1′-biphenyl]-4-yl)cyclopropane-1-carboxamide], the EC50 is 1000 to 5000 nM. On to `CC(C)(Oc1ccc(F)cc1)C(=O)Nc1ccc(-c2ccc(COC3CC3)cc2)cc1` [Example 132, N-(4′-(cyclopropoxymethyl)-[1,1′-biphenyl]-4-yl)-2-(4-fluorophenoxy)-2-methylpropanamide], for which the concentration for a half-maximal effect (EC50) is 1000 to 5000 nM. Take `CN(C)Cc1ccc(-c2ccc(NC(=O)C3CC3c3ccccn3)cc2)cc1` (racemic) [Example 48, (rac-trans)-N-(4′-(dimethylamino)methyl)-[1,1′-biphenyl]-4-yl)-2-(pyridin-2-yl)cyclopropane-1-carboxamide]: the EC50 was more than 5000 nM.

Consider `CC(C)(Oc1ccc(F)cc1)C(=O)Nc1ccc(-c2ccc(C(F)(F)F)cc2)cc1` [Example 10, 2-(4-fluorophenoxy)-2-methyl-N-(4′-(trifluoromethyl)-[1,1′-biphenyl]-4-yl)propenamide], for which the EC50 was more than 5000 nM. As for `COc1ccc(OC(C)(C)C(=O)Nc2ccc(-c3cnc(N(C)C)nc3)cc2)cc1` [Example 95, N-(4-(2-(dimethylamino)pyrimidin-5-yl)phenyl)-2-(4-methoxyphenoxy)-2-methylpropanamide], the figure is 1000 to 5000 nM; as for `COCc1ccc(-c2ccc(NC(=O)C(C)(C)Oc3ccc(OC)cc3)cc2)cc1` [Example 66, N-(4′-(methoxymethyl)-[1,1′-biphenyl]-4-yl)-2-(4-methoxyphenoxy)-2-methylpropanamide], less than 1000 nM; as for `COCc1ccc(-c2ccc(NC(=O)C(C)(C)Oc3ccc(C)cc3)cc2)cc1` [Example 128, N-(4′-(methoxymethyl)-[1,1-biphenyl]-4-yl)-2-methyl-2-(p-tolyloxy) propenamide], less than 1000 nM.

In the case of `CCOc1ncc(-c2ccc(NC(=O)C(C)(C)Oc3ccc(F)cc3)cc2)cn1` [Example 30, N-(4-(2-ethoxypyrimidin-5-yl)phenyl)-2-(4-fluorophenoxy)-2-methylpropanamide], the EC50 was 1000 to 5000 nM.

For the compound `CCN(C(=O)C(C)(C)Oc1ccc(F)cc1)c1ccc(-c2ccc(COC)cc2)cc1` [Example 14, N-ethyl-2-(4-fluorophenoxy)-N-(4′-(methoxymethyl)-[1,1′-biphenyl]-4-yl)-2-methylpropanamide], the half-maximal effective concentration (EC50) lay in the range of 1000 to 5000 nM. On to `CCOc1ccc(-c2ccc(NC(=O)C(C)(C)Oc3ccccn3)cc2)cn1` [Example 140, N-(4-(6-ethoxypyridin-3-yl)phenyl)-2-methyl-2-(pyridin-2-yloxy)propanamide], for which the EC50 lay in the range of 1000 to 5000 nM. On to `O=C(Nc1ccc(-c2ccc(CN3CCOCC3)cc2)cc1)C1CC1c1ccccn1` (racemic) [Example 37, (1R*,2R*)-N-(4′-(morpholinomethyl)-[1,1′-biphenyl]-4-yl)-2-(pyridin-2-yl)cyclopropane-1-carboxamide], for which the 50% effective concentration (EC50) lay within 1000 to 5000 nM. Turning to `CC(C)Oc1ccc(-c2ccc(NC(=O)C(C)(C)Oc3ccc(F)cc3)cc2)cc1` [Example 46, 2-(4-fluorophenoxy)-N-(4′-isopropoxy-[1,1′-biphenyl]-4-yl)-2-methylpropanamide], the 50% effective concentration (EC50) is less than 1000 nM. For the compound `COCc1ccc(-c2ccc(NC(=O)C(C)(C)Oc3ccc(F)cc3F)cc2)cc1` [Example 63, 2-(2,4-difluorophenoxy)-N-(4′-(methoxymethyl)-[1,1′-biphenyl]-4-yl)-2-methylpropanamide], the EC50 is less than 1000 nM. On to `COCc1ccc(-c2ccc(NC(=O)C(C)(C)Oc3cccc(OC)c3)cc2)cc1` [Example 98, N-(4′-(methoxymethyl)-[1,1′-biphenyl]-4-yl)-2-(3-methoxyphenoxy)-2-methylpropanamide], for which the EC50 lay within 1000 to 5000 nM. As for `COCc1ccc(-c2ccc(NC(=O)C(C)(C)Oc3ccc(F)cc3)cc2)cc1F` [Example 93, N-(3′-fluoro-4′-(methoxymethyl)-[1,1′-biphenyl]-4-yl)-2-(4-fluorophenoxy)-2-methylpropanamide], the figure is more than 5000 nM; as for `COCc1ccc(-c2ccc(NC(=O)C3(Oc4ccc(F)cc4)CCC3)cc2)cc1` [Example 127, 1-(4-fluorophenoxy)-N-(4′-(methoxymethyl)-[1,1′-biphenyl]-4-yl)cyclobutane-1-carboxamide], less than 1000 nM; as for `CC(C)(C)OCc1ccc(-c2ccc(NC(=O)C(C)(C)Oc3ccc(F)cc3)cc2)cc1` [Example 89, N-(4′-(tert-butoxymethyl)-[1,1′-biphenyl]-4-yl)-2-(4-fluorophenoxy)-2-methylpropanamide], less than 1000 nM. Regarding `CCOc1ccc(-c2ccc(NC(=O)C(C)(C)Oc3ccc(C#N)cc3)cc2)cn1` [Example 116, 2-(4-cyanophenoxy)-N-(4-(6-ethoxypyridin-3-yl)phenyl)-2-methylpropanamide], the EC50 lay in the range of 1000 to 5000 nM.

On to `COCc1ccc(-c2ccc(NC(=O)C(C)(C)Oc3ccc(C(C)C)cc3)cc2)cc1` [Example 60, 2-(4-isopropylphenoxy)-N-(4′-(methoxymethyl)-[1,1′-biphenyl]-4-yl)-2-methylpropanamide], for which the EC50 is less than 1000 nM.

For `CN(C)c1ncc(-c2ccc(NC(=O)C3CC3c3ccccn3)cc2)cn1` (stereo not shown) [Example 126, N-(4-(2-(dimethylamino)pyrimidin-5-yl)phenyl)-2-(pyridin-2-yl)cyclopropane-1-carboxamide], the EC50 was more than 5000 nM.

Regarding `COCc1ccc(-c2ccc(N(CCO)C(=O)C(C)(C)Oc3ccc(F)cc3)cc2)cc1` [Example 33, 2-(4-fluorophenoxy)-N-(2-hydroxyethyl)-N-(4′-(methoxymethyl)-[1,1′-biphenyl]-4-yl)-2-methylpropanamide], the EC50 fell in the range of 1000 to 5000 nM. Turning to `COCc1ccc(-c2ccc(N(CC(C)(C)O)C(=O)C3CC3c3ccccn3)cc2)cc1` (stereo not shown) [Example 141, N-(2-hydroxy-2-methylpropyl)-N-(4′-(methoxymethyl)-[1,1′-biphenyl]-4-yl)-2-(pyridin-2-yl)cyclopropane-1-carboxamide], the EC50 was more than 5000 nM. On to `CCCN(C(=O)C(C)(C)Oc1ccc(F)cc1)c1ccc(-c2ccc(COC)cc2)cc1` [Example 22, 2-(4-fluorophenoxy)-N-(4′-(methoxymethyl)-[1,1′-biphenyl]-4-yl)-2-methyl-N-propylpropanamide], for which the EC50 lay in the range of 1000 to 5000 nM.

In the case of `COCc1ccc(-c2ccc(NC(=O)C(C)(C)Oc3ccc(F)cn3)cc2)cc1` [Example 138, 2-((5-fluoropyridin-2-yl)oxy)-N-(4′-(methoxymethyl)-[1,1′-biphenyl]-4-yl)-2-methylpropanamide], the EC50 is 1000 to 5000 nM. For the compound `CCCc1ccc(-c2ccc(NC(=O)C(C)(C)Oc3ccc(F)cc3)cc2)cc1` [Example 84, 2-(4-fluorophenoxy)-2-methyl-N-(4′-propyl-[1,1′-biphenyl]-4-yl)propanamide], the EC50 was more than 5000 nM. Consider `COc1ccc(OC(C)(C)C(=O)Nc2ccc(-c3ccc(CN4CCOCC4)cc3)cc2)cc1` [Example 113], for which the EC50 was 1000 to 5000 nM. On to `COCc1ccc(-c2ccc(NC(=O)C(C)(C)Oc3ccc(C(F)(F)F)cc3)cc2)cc1` [Example 104, N-(4′-(methoxymethyl)-[1,1′-biphenyl]-4-yl)-2-methyl-2-(4-(trifluoromethyl)phenoxy)propanamide], for which the EC50 fell in the range of 1000 to 5000 nM. As for `CCc1ccc(OC(C)(C)C(=O)Nc2ccc(-c3ccc(COC)cc3)cc2)cc1` [Example 57, 2-(4-ethylphenoxy)-N-(4′-(methoxymethyl)-[1,1′-biphenyl]-4-yl)-2-methylpropanamide], the figure is less than 1000 nM; as for `CC(c1ccc(-c2ccc(NC(=O)C(C)(C)Oc3ccc(F)cc3)cc2)cc1)N1CCOCC1` (single isomer, unassigned) [Example 123, 2-(4-fluorophenoxy)-2-methyl-N-(4′-(1-morpholinoethyl)-[1,1′-biphenyl]-4-yl)propanamide], less than 1000 nM; as for `CC(C)(Oc1ccc(F)cc1)C(=O)Nc1ccc(-c2ccc(C(=O)N3CCOCC3)cc2)cc1` [Example 27, 2-(4-fluorophenoxy)-2-methyl-N-(4′-(morpholine-4-carbonyl)-[1,1′-biphenyl]-4-yl)propenamide], 1000 to 5000 nM. For `COCc1ccc(-c2ccc3c(c2)CCN3C(=O)C2CC2c2ccccn2)cc1` (racemic) [Example 50, (5-(4-(methoxymethyl)phenyl)indolin-1-yl)((rac-trans)-2-(pyridin-2-yl)cyclopropyl)methanone], the concentration giving a half-maximal response (EC50) was 1000 to 5000 nM.
